# Laboratory results reported in US20070276024A1, “Methods for Treating Diseases and Conditions with Inverse Agonists and for Screening for Agents Acting as Inverse Agonists” (Inverseon , Inc., priority 2003, published 2007).
# Entries after “also recorded” stand apart in the source; their conditions may differ. Like-named read-outs stand apart in the source and are kept apart here.
# Experiments:
# asthmatic mice [1] = experiment: Airway resistance (Raw) response to methacholine in murine model of asthma; format: in vivo, Balb/cJ mice
# Procedure: Balb/cJ mice aged 6 weeks (Jackson Animal Laboratory, Bar Harbor, Maine) were housed under specific pathogen-free conditions and fed a chicken ovalbumin-free diet. The Animal Research Ethics Boards of both the University of Houston and the Baylor College of Medicine approved all experiments reported here. […] Mice were sensitized with subcutaneous injection of 25 μg of ovalbumin adsorbed to aluminum hydroxide on protocol days 2, 9, and 16. Subsequently, mice were given 50 μL of saline solution containing 25 μg of ovalbumin intranasally, on a daily basis, from protocol days 23 through 27. A group of ovalbumin-sensitized saline-challenged mice serves as controls for systemic sensitization and respiratory challenges with ovalbumin. Prior to intranasal administrations, mice were sedated with halothane vapor.
# To examine the effects of duration of β-adrenergic ligand therapy on the phenotype of the murine model of asthma, the experimental drugs were administered either acutely or chronically to different groups of asthmatic mice.
# Asthmatic mice on acute therapy were given a single intravenous bolus infusion of either β-adrenergic drug or normal saline on protocol day 28, 15 minutes before airway responsiveness to methacholine was determined. […] […] […] These concentrations were chosen based on those producing therapeutic effects in mice in previously published studies. The non-asthmatic mice were fed normal chow.
# On protocol day 28, mice were anesthetized, tracheotomized, and connected to a computer-controlled small animal ventilator (Flexivent, Scientific Respiratory Equipment, Inc., Montreal, Canada). Airway resistance (Raw) was measured using the forced oscillation technique. The cellular composition of bronchoalveolar lavage fluid (BALF) was also determined.
# To induce airway constriction, a solution containing 150 μg/mL of acetyl-α-methylcholine chloride (methacholine) (Sigma Chemical, St. Louis, Mo.) was infused intravenously at constant rates using a syringe infusion pump (Raze Scientific Instruments, Stanford, Conn.). […] Each methacholine dose was administered for 3 to 5 minutes, during which data were sampled at 1-minute intervals and then averaged.
# The complex input impedance of the respiratory system was computed and the value of the real part of respiratory system impedance at 19.75 Hz was taken to reflect the magnitude of airway resistance (Raw). To examine the degree of airway responsiveness of each animal, the values for Raw as a function of methacholine doses were plotted. The largest value for Raw achieved in response to methacholine stimulation was referred to as Rawpeak. For mice that achieved a plateau in the methacholine dose-Raw response curve, the ED50 was calculated by linear interpolation using the GraphPad Prism4 (GraphPad Software, Inc.). […] The Bonferroni test was used to examine the statistical differences between experimental groups. The effects of acute drug treatments on baseline respiratory system mechanics were assessed using a two-tailed paired t-test. A value of P<0.05 was considered significant.
# For these experiments, salbutamol was used for chronic administration at 0.5 mg/kg/day with a minipump and for acute administration at 0.15 mg/kg by i.v. bolus 15 minutes prior to challenge. Alprenolol was used at a high dose of 7200 ppm in chow or at a low dose of 720 ppm in chow. Carvedilol was used at a high dose of 2400 ppm in chow or at a low dose of 720 ppm in chow.
# The airway resistance (Raw) is plotted as cm H2O ml^−1 s.
# β2-adrenergic receptor [2] = molecular target: T1, β2-adrenergic receptor (Mus musculus, UniProt P18762); format: in vivo, mice; settings: for increase of the level of β2-adrenergic receptors over the non-treated mice: chronic administration; for Bmax (receptor density) / βmax (receptor density): lung membranes, mean±SEM, n=3-5; for Bmax (receptor density): drug treatment 15 Minutes; for βmax (receptor density): drug treatment 28 Days
# T1 sequence (P18762 whole entry): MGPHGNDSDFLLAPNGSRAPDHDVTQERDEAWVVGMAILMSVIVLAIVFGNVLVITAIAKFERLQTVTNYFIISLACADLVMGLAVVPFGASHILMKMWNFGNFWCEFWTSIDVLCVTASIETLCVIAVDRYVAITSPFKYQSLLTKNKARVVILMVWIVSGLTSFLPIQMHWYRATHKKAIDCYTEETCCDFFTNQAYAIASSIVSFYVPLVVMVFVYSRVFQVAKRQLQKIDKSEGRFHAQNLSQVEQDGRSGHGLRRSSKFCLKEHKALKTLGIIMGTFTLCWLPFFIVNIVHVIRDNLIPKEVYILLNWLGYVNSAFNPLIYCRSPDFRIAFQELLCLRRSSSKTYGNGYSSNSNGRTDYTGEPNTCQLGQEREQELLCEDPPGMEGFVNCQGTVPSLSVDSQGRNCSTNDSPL
# Procedure: β2-adrenergic receptor numbers were measured in asthmatic mice as follows. […] Mice were sacrificed and lung membranes were isolated as follows. Frozen lung tissue was homogenized in an ice-cold buffer containing 0.32 M sucrose and 25 mM Tris (pH 7.4) using a polytron (Pro 200, Pro Scientific, Inc.). The homogenate was centrifuged at 1000×g for 10 min at 4° C. The resulting supernatant was centrifuged at 40,000×g for 20 min at 4° C. The pellet was suspended in an ice-cold 25 mM Tris-HCl buffer (pH 7.4) and centrifuged at 40,000'g for 20 min at 4° C. The final pellet was suspended in 200 μL of 25 mM Tris-HCl (pH 7.4); membrane protein concentration was determined by BCA protein assay kit. […] The incubation was done at 37° C. for 2 h and terminated by rapid vacuum filtration through glass fiber filters. The filters were washed three times with 250 μL of cold wash buffer (25 mM Tris-HCl, pH 7.4) and the radioactivity determined in a counter. […] Receptor densities are expressed as femtomoles of sites per milligram of protein. Bmax is determined by nonlinear regression of the saturation binding curves.
# asthmatic mice [3] = experiment: Combination of carvedilol and salbutamol on airway hyperresponsiveness; format: in vivo, Balb/cJ mice; settings: at the highest dose of methacholine; 28 days treatment
# Procedure: Mice (Balb/cJ) aged 6 weeks were housed under specific pathogen-free conditions and fed a chicken ovalbumin-free diet. Mice were systemically sensitized with ovalbumin adsorbed to aluminum hydroxide. Mice were treated as follows: CAR/SAL 28D=for 28 days mice (n=6-12) were administered carvedilol (2400 ppm in animal chow) and salbutamol (subcutaneous delivery of 0.5 mg/kg/day in an Alzet #2400 osmotic minipump); NTX S/C=mice (n=6-12) no drug treatment for 28 days; CTRL=mice (n=6-12) no drug treatment for 28 days, not subsequently challenged; CARHD 28D=for 28 days mice (n=6-12) were administered carvedilol only (2400 ppm in animal chow); CARHD 28D SAL AC=for 28 days mice (n=6-12) were administered carvedilol (2400 ppm in animal chow) and 15 minutes prior to measuring airway hyperresponsiveness, salbutamol was administered at a dose of 1.2 mg.kg.
# To measure airway hyperresponsiveness after 28 days, all mice except the CTRL (control) mice were challenged with ovalbumin and then all mice were anesthetized, tracheotomized, and connected to a Flexivent small animal ventilator to measure airway resistance (Raw) by the forced oscillation technique. To induce airway constriction, a solution containing 150 μg/mL of methacholine was infused using a syringe infusion pump. The methacholine infusion was started at 0.008 mL/min and its rate was doubled stepwise up to a maximum […]. […]
# patients with CHF = settings: cited from earlier work
# [4] = system: sensitized and allergen-challenged mice; experiment: Aminophylline on acute airway effects of nadolol; format: in vivo
# Procedure: Mice were sensitized to the allergen ovalbumin as described in Example 1.
# At time point 1 (time=−10 min) baseline airway resistance of the mice was determined. At time point 2 (time=−5 min) methacholine was infused into mice to reach their EC70.
# Phospholipase C (PLC-β1) = experiment: Ratio of phospholipase C to actin in cultured tracheal smooth muscle cells (immunoblot); format: cell-based; settings: cells from asthmatic mice, chronic high dose treatment
# Description: Cultured tracheal smooth muscle cells were obtained from mice exposed to the following treatments: NS/NC=nonasthmatic, non-challenged mice; S/C=asthmatic mice; Sal.Ac=asthmatic mice, acute salbutamol treatment; Sal.Ch=asthmatic mice, chronic salbutamol treatment; Nad.Ac=asthmatic mice, acute nadolol high dose treatment; and Nad.Ch=asthmatic mice, chronic nadolol high dose treatment.
# After airway function experiments, the trachea were surgically removed from anesthetized mice that had been treated with drugs or vehicle. The trachea was minced and the cells plated and grown in culture. The smooth muscle cells grow faster and take over the culture dish. The cells were grown in medium which contained the drugs used in the treatment or vehicle controls. Phospholipase C (PLC-β1) was determined by immunoblotting with an antibody specific for the enzyme. Actin was used as a loading control and the amount of PLC-β1 was expressed as a ratio to actin.
# The phospholipase C protein level was measured in these cultured cells and compared with the level of the structural protein actin as a baseline. The enzyme phospholipase C plays a key role in the pathway leading to asthmatic symptoms, as it cleaves a phosphodiester bond in membrane phospholipids, resulting in the formation of a 1,2-diglyceride. […]
# asthmatic mice [5] = settings: Callaerts-Vegh et al. 2004, cited from earlier work
# β2-adrenergic receptor [6] = molecular target: T1, β2-adrenergic receptor; experiment: Immunohistochemistry of β2-adrenergic receptor levels in lungs; format: in vivo, mice; set-up: from tissue; host or cells: fixed lung sections of mice; settings: chronic treatment, versus untreated animals
# Procedure: The mice were sacrificed and the lungs excised. Then the lungs were fixed in 4% paraformaldehyde (45 min, 0° C.). After fixation, lungs were washed in PBS (60 min) and placed in increasing concentrations of sucrose (10% sucrose/5% glycine in PBS for 30 min; 20% sucrose/10% glycine in PBS for 30 min; 30% sucrose/25% glycine in PBS for 12 h at 4° C.). Lungs were embedded in OCT and 12-μm sections cut with a Tissue-Tek II cryostat. The sections were air dried and fixed with 4% paraformaldehyde for 15 min. After 3 washes in PBS, the slides were blocked with 5% milk in PBS for 1 h, and then incubated overnight with anti-β2-adrenergic receptor antibody (1:200, Santa Cruz Biotechnology) in blocking solution. Slides were washed in PBS and incubated with secondary antibody (1:200, Cy3 goat anti-rabbit, 16 h at 4° C.). […] After washing with PBS, coverslips were mounted and viewed by epifluorescent microscopy.
# [7] = asthmatic mice, acute: single intravenous bolus 15 minutes before methacholine
# [8] = asthmatic mice, chronic administration, 28 days (in chow; salbutamol by osmotic minipump)
Compound,Decreased Raw (asthmatic mice [1]; 15 minutes of administration),Decreased Raw (asthmatic mice [1]; 2 days of administration),Decreased Raw (asthmatic mice [1]; 28 days of administration),"airway responsiveness to methacholine provocation (airway resistance, Raw) (asthmatic mice [1]; [7])","airway responsiveness to methacholine provocation (airway resistance, Raw) (asthmatic mice [1]; [8])",Increased β2AR density (β2-adrenergic receptor [2]; 15 minutes of administration),Increased β2AR density (β2-adrenergic receptor [2]; 2 days of administration),Increased β2AR density (β2-adrenergic receptor [2]; 28 days of administration),increase of the level of β2-adrenergic receptors over the non-treated mice (β2-adrenergic receptor [2]),Bmax (receptor density) (β2-adrenergic receptor [2]),βmax (receptor density) (β2-adrenergic receptor [2]),further results
"COc1ccccc1OCCNCC(O)COc1cccc2[nH]c3ccccc3c12 (centres unmarked) [Carvedilol, carvedilol]",no,no,yes,enhanced the airway responsiveness,does reduce airway hyperresponsiveness; also recorded: reduced the responsiveness of asthmatic mice to methacholine provocation; also recorded: providing protection from airway hyperresponsiveness,no,no,yes,over 10 fold,86.3 ± 19.42 femtomoles of sites per milligram of protein,904.1 ± 43.46 femtomoles of sites per milligram of protein,"shift of methacholine dose-airway response relationship (asthmatic mice [1]; asthmatic mice, chronic delivery, 28 days): shifts the sensitivity of the responsiveness to methacholine to lower concentrations; also recorded: shifted the methacholine dose-airway response relationship to the left; Increased β2AR density (β2-adrenergic receptor [2]; 28 days of administration, listed as carvedilol): increase in receptor density; bronchoconstriction (airway resistance) (asthmatic mice [3]): higher bronchoconstriction than these treatments but less than the non-drug treated sensitized and challenged (NTX S/C) mice; clinical outcome (mortality, benefit over placebo) (patients with CHF): significant mortality reduction"
"CC(C)(C)NCC(O)COc1cccc2c1CC(O)C(O)C2 (centres unmarked) [Nadolol, nadolol]",no,yes,yes,enhanced the airway responsiveness,produced a decrease in airway responsiveness; also recorded: providing protection from airway hyperresponsiveness; also recorded: reduced the responsiveness,no,yes,yes,nearly eightfold increase,181.9 ± 48.28 femtomoles of sites per milligram of protein,785.5 ± 154.8 femtomoles of sites per milligram of protein,"airway resistance (Raw) (asthmatic mice [1]; asthmatic mice, 1 ppm in chow): identical to the untreated mice; Increased β2AR density (β2-adrenergic receptor [2]; 2 days of administration, listed as nadolol): increase in receptor density; Increased β2AR density (β2-adrenergic receptor [2]; 28 days of administration, listed as nadolol): increase in receptor density; baseline airway resistance ([4]; pretreated 0.72 mg/kg i.p.): same baseline airway resistance; airway resistance upon methacholine challenge ([4]; pretreated 0.72 mg/kg i.p. 15 minutes prior to methacholine, methacholine infused to EC70): ~4.5 units; phospholipase C (ratio of PLC-β1 to actin) (Phospholipase C (PLC-β1)): significantly decreases the activity of phospholipase C; airway hyperresponsiveness (asthmatic mice [5]; administered acutely): worsens airway hyperresponsiveness; airway hyperresponsiveness (asthmatic mice [5]; administered chronically): prevents airway hyperresponsiveness; labeling with anti-β2-adrenergic receptor antibodies in lungs (β2-adrenergic receptor [6]): considerably more intense; also recorded: increase in β-adrenergic receptor density"
